Experimental data: publication PMC12858405, “Ideal efficacy photoswitching for chromocontrol of TRPC4/5 channel functions in live tissues” (Nature Chemical Biology, 2026)

Biological target: T1, heteromeric TRPC5:TRPC1 (Homo sapiens, UniProt Q9UL62)
T1 construct: expressed in transfected cells; host or cells: HEK293, transiently transfected
Assay: Whole-cell recordings, HEK293 co-expressing TRPC5 and TRPC1
Assay type: cell-based
Conditions: 10 nM
From the text: Müller, Niemeyer, et al., Schaefer & Thorn-Seshold 2025: Ideal Efficacy Photoswitching of TRPC4/5 in Tissue 3.3 Activation of heteromeric TRPC4:TRPC1 and TRPC5:TRPC1
Supplementary Figure 15: Photoswitching of ionic currents through heteromeric TRPC4:TRPC1 and TRPC5:TRPC1 channel complexes. Whole cell recordings from HEK293 cells that were transiently transfected to express the indicated TRPC isoforms were obtained in the whole cell mode with a voltage and photoswitching paradigm as illustrated in (A). (B-D) Superimposed recordings of 20 consecutive sweeps are shown for cells that ony express TRPC4 or TRPC5 (left), and for cells that co-express the respective TRPC channel along with TRPC1 (right). Note the characteristic change of the current-voltage relationship with smaller inward currents and stronger outward rectification in cells that co-express TRPC1. […]
or 10 nM (all other panels). The data shown are representative for 4-12 patched cells, each.
Currents through heteromeric complexes that are composed of TRPC4:TRPC1 or TRPC5:TRPC1 subunits can be unequivocally recognized on the basis of their unique biophysical properties with smaller unitary and global inward current amplitudes and a marked outward rectification.44 We show […]
also the heteromeric complexes TRPC5:TRPC1 and TRPC4:TRPC1 that are formed upon co-expression with TRPC1 (Supplementary Fig. 15). […]

T1 sequence (Q9UL62 whole entry): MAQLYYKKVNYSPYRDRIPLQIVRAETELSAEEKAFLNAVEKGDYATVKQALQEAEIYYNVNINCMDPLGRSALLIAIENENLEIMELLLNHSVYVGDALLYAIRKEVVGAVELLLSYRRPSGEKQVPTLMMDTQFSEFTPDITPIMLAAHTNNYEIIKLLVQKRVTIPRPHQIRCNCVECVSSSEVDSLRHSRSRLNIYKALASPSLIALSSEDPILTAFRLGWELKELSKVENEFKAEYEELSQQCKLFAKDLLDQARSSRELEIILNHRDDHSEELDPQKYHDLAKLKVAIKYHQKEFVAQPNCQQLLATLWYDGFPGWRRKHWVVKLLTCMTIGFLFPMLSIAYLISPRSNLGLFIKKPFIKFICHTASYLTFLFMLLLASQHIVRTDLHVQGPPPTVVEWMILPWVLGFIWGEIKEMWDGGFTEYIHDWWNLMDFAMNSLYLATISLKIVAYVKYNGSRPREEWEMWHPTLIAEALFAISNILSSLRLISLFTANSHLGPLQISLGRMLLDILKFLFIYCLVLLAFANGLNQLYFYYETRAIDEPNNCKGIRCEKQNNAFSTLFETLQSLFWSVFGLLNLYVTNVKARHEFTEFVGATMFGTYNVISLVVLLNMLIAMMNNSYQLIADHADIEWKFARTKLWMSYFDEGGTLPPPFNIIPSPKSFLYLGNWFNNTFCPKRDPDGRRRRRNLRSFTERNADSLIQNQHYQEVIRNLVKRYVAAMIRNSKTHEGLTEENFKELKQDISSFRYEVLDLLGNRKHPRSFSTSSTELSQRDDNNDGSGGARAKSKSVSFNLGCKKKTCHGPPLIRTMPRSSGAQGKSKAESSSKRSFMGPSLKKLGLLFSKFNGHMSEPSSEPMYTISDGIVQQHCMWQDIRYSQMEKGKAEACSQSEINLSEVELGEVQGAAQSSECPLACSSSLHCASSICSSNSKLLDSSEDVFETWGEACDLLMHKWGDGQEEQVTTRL
T1 sequence (P48995 whole entry partner): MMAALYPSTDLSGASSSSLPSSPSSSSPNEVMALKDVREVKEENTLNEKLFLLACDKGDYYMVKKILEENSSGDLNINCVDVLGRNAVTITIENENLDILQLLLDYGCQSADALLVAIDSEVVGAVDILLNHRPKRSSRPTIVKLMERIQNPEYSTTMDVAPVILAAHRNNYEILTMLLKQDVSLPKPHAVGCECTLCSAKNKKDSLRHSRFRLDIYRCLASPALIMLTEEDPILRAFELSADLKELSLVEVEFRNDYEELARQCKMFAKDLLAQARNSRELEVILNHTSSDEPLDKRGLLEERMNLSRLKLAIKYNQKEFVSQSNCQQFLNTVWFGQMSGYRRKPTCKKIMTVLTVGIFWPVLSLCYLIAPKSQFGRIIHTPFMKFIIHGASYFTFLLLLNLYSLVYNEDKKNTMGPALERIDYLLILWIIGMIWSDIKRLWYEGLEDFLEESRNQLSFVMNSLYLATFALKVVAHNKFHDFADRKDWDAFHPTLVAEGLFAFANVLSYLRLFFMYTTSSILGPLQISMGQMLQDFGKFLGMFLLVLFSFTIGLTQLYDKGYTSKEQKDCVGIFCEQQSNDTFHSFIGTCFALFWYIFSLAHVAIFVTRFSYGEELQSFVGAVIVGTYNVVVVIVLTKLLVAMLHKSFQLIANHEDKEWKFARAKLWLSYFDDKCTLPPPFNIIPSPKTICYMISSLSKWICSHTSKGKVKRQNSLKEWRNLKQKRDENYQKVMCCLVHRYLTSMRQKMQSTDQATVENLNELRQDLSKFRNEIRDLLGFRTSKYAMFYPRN

| Chromocontrol over heteromeric TRPC5:TRPC1 currents versus homomeric channels | Structure (SMILES) |
| --- | --- |
| comparable chromocontrol | Cn1c(=O)n(CCCO)c(=O)c2c1nc(Oc1ccc(N=Nc3ccccc3)c(Cl)c1)n2Cc1ccc(Cl)cc1 [AzHC] |
| comparable chromocontrol | Cn1c(=O)n(CCCO)c(=O)c2c1nc(Oc1ccc(N=Nc3ccccc3)c(OC(F)(F)F)c1)n2Cc1ccc(Cl)cc1 [AzPico] |
